{
  "source": "paper PMC10572855",
  "about": "“Phenotypic Test of Benzo[4,5]imidazo[1,2-c]pyrimidinone-Based Nucleoside and Non-Nucleoside Derivatives against DNA and RNA Viruses, Including Coronaviruses” (International Journal of Molecular Sciences, 2023)",
  "data": [
    {"tested_on": "SARS-CoV-2 RG-2675 (South Africa)", "experiment": "Cytopathic effect reduction, SARS-CoV-2 RG-2675 (South Africa) in Vero cells", "format": "cell-based", "details": "Severe acute respiratory syndrome coronavirus 2, Vero, read-out: Antiviral Activity (EC50) RG-2675 (South Africa)", "units": {"EC50": "µM"}, "values": [
      {"smiles": "COc1ccc(C(OC[C@H]2O[C@@H](n3ccc4nc5cc(O)ccc5n4c3=O)C[C@@H]2O)(c2ccccc2)c2ccc(OC)cc2)cc1", "note": "[Compound 3a, 2-((2R,4S,5R)-5-((bis(4-methoxyphenyl)(phenyl)methoxy)methyl)-4-hydroxytetrahydrofuran-2-yl)-7-hydroxybenzo[4,5]imidazo[1,2-c]pyrimidin-1(2H)-one]", "EC50": "9.1 ± 0.62"},
      {"smiles": "CC(C)C(=O)OC[C@H]1O[C@@H](n2ccc(NO)nc2=O)[C@H](O)[C@@H]1O", "note": "[Molnupiravir]", "EC50": "5.18 ± 0.26"},
      {"smiles": "CCC(CC)COC(=O)[C@H](C)N[P@](=O)(OC[C@H]1O[C@@](C#N)(c2ccc3c(N)ncnn23)[C@H](O)[C@@H]1O)Oc1ccccc1", "note": "[Remdesivir, reference compound]", "EC50": "1.31 ± 0.68"}
    ]}
  ]
}
